The record followed here is patent publication US20170246190A1, “METHODS AND FORMULATION FOR IMPROVING ORAL AVAILABILITY OF CPT-11 WHILE REDUCING CPT-11 INDUCED GASTROINTESTINAL TOXICITY IN CANCER THERAPY” (Johnpro Biotech Inc., priority 2014, published 2017).

Data set [1] concerns NOD/SCID mice. The experiment in a line: Histological analysis (H&E) of colon tissues after oral CPT-11 treatment. The class given is in vivo. Particulars: oral CPT-11 50 mg/Kg, with or without silychristin 10 mg/Kg; FIG. 2. How it is done:
(§1) To inoculate tumor, HT29 cells (1×10^6 cells per injection) were injected subcutaneously to lab animals to generate s.c. tumors on day 1, which were allowed to grow to about 5 mm in diameter. Two sets of experiments were conducted.
(§2) In the first set of experiment, effects of silymarin on the reduction of CPT-11 induced bloody stool were investigated. […] At the end of the experiments, the animals were sacrificed and colon tissues from each animals were stained and used in histological analysis.

Data set [2] has as its system NOD/SCID mice. The experiment in a line: Bloody diarrhea evaluation by daily naked-eye observation. In kind it is in vivo. Particulars: oral CPT-11 50 mg/Kg and/or silychristin 10 mg/Kg. As for the experimental part:
as §1, §2

Data set [3] is described as follows: Oral availability of CPT-11: blood levels of CPT-11 and SN-38 by HPLC in mice bearing HT29 xenograft tumors. In kind it is in vivo, NOD/SCID mice. Particulars: oral CPT-11 40 mg/Kg alone, 4 hrs after ingestion, FIG. 1A. How it is done: as §1
In the second set of experiment, oral availability of CPT-11 was evaluated. The animals were randomly assigned to 3 groups, in which animals in group 1 (N=5) were on normal diet; animals in group 2 (N=5) received oral CPT-11 treatment (40 mg/Kg), and animals in group 3 (N=5) received a dose of dose of UDCA (20 mg/Kg) on day 1, an hour later, one dose of CPT-11 (40 mg/Kg) and one dose of silymarin (100 mg/Kg) were given. Blood samples were respectively taken at 1, 4, 8 hrs after the combined treatment of CPT-11 and on days 4, and 8; and the level of SN-38 (i.e., an active metabolite of CPT-11) was measured by HPLC. The body weight (BW) of each animal was measured daily.
The animals bearing xenografted s.c. colon tumors were randomly assigned into 3 groups, in which group 1 received no treatment, group 2 received one dose of oral treatment of CPT-11 (40 mg/Kg), and group 3 received UDCA (20 mg/Kg), CPT-11 (40 mg/Kg) and silymarin (100 mg/Kg) via oral ingestion in accordance with procedures described in the “Materials and methods” section. […]

In a further data set the test system is normal cells HEK-293. The experiment in a line: Cell viability assay (MTS) on normal cells. The class given is cell-based, human. The conditions noted are these: 100 μM; FIG. 4. How it is done: Cell line used in the present disclosure were human colon carcinoma cell line HT29, and human embryonic kidney cell line HEK-293. HT29 cells were cultured and maintained in Dulbecco's modified Eagle media (DMEM) supplemented with 10% heat inactivated fetal bovine serum (FBS), 50 units/mL penicillin G, 50 μg/mL streptomycin (pH 7.4), while HEK-293 cells were cultured in complete SFMII growth medium supplemented with 4mM L-glutamine. Both cell lines were maintained in humidified environment comprising 5% CO2/95% air at 37° C.
Cell were cultured at a density of 1.0×10^5 cells/well in 96-well round-bottom plates (Falcon, UK) containing 200 μL of culturing medium. Cells were maintained for two days at 37° C. in a humidified, 5% CO2 atmosphere. The proliferation rate of the cells was determined by MTS assay (CellTiter 96 aqueous one-solution cell proliferation assay; Promega, Wis., USA). Forty microliters of CellTiter 96 aqueous one-solution were added to each well. After incubation for 4hrs, the UV absorbance of the solution was measured at a wavelength of 490 nm. All MTS assays were performed in triplicate.

A further data set deals with T1, human βG (hβG) (Homo sapiens, UniProt P08236).
T1 sequence (P08236 23-651): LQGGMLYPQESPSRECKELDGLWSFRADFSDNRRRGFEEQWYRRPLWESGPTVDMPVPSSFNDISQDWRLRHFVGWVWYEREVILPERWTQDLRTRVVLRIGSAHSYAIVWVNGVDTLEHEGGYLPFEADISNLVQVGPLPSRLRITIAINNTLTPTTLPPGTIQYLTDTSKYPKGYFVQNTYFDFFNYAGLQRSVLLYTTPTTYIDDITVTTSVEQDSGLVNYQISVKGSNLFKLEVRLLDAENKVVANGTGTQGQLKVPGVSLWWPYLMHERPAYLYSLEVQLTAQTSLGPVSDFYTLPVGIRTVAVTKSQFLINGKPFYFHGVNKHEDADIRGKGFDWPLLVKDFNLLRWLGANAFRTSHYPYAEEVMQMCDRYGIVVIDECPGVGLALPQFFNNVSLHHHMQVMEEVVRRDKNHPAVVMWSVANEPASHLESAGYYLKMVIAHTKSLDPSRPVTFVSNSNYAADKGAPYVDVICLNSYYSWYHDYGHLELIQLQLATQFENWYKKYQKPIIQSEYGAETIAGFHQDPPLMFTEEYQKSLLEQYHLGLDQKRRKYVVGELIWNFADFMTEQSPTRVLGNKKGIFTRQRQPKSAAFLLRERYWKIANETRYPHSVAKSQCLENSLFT
The experiment in a line: Beta-glucuronidase activity with fluorogenic substrate MUG, human enzyme. Particulars: 8 μM; FIG. 3B. In kind it is biochemical. As for the experimental part:
(§3) The βG activity in solution was determined with the fluorogenic substrate 4-methylumbellifery β-D-glucuronide (MUG), in which the non-fluorescent MUG would give rise to glucuronic acid and a highly fluorescent product, 4-methylumbelliferone (4-MU), at higher pH, after being converted by βG. The reaction can be quenched by the addition of a basic solution of sodium carbonate, and pH may be adjusted to quantitate the fluorescent signals. […] After 10 minutes, the assays were quenched at 15 second intervals by adding 1.9 ml of the carbonate stopping buffer. The samples were subject to fluorescence measurement, and the data was converted to nmol MUG hydrolyzed as an indication of GUS enzyme activity.
(§4) Silymarin is known to be a mixture of flavonolignans extracted from blessed milk thistle (Silybum marianum). […] Results are illustrated in FIGS. 3A and 3B.

A further data set deals with E. Coli βG (eβG) (Escherichia coli, UniProt P05804). The experiment in a line: Beta-glucuronidase activity with fluorogenic substrate MUG, E. Coli enzyme. In kind it is biochemical. Particulars: FIG. 3A. How it is done: as §3, §4
Chain of E. Coli βG (eβG) (P05804 whole entry): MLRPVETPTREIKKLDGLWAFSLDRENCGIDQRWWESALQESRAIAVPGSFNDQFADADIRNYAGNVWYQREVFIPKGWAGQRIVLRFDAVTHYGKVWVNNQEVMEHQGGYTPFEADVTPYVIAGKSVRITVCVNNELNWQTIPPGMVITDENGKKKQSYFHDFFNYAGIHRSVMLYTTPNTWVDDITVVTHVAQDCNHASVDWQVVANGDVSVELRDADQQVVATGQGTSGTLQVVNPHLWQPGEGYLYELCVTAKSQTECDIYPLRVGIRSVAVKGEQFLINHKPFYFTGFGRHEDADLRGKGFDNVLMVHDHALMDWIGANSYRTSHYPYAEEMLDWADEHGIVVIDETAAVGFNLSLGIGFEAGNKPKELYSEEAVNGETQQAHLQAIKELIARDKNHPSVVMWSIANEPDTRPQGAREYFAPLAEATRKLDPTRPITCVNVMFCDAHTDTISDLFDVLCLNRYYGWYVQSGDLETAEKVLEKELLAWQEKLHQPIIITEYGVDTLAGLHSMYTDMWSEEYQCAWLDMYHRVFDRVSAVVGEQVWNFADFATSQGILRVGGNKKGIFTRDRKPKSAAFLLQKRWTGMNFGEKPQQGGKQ

Structures can show the parent of a compound that is named as a salt.

Turning to `CCc1c2c(nc3ccc(OC(=O)N4CCC(N5CCCCC5)CC4)cc13)-c1cc3c(c(=O)n1C2)COC(=O)[C@]3(O)CC` [CPT-11, Irinotecan hydrochloride], the “colon tissue damage (morphology and integrity of epithelial cells), H&E histology” value with NOD/SCID mice [1] was “severe damage”. Besides, the “number of animals that exhibited bloody stool / bloody diarrhea” value in the data set on NOD/SCID mice [2] is reported as 4 animals. In data set [3], the “blood level of CPT-11” value is “undetectable level”.
As for `COc1cc([C@@H]2Oc3c(O)cc([C@H]4Oc5cc(O)cc(O)c5C(=O)[C@@H]4O)cc3[C@H]2CO)ccc1O` [silychristin], in the data set on normal cells HEK-293, the “effect on normal cells' activities (viability of HEK-293)” value was “did not adversely affect”. The “effect on the activity of hβG” value at human βG (hβG) is listed as “without affecting”. The “number of animals that exhibited bloody stool / bloody diarrhea” value with NOD/SCID mice [2] was “none”. The “inhibition of eβG activity” value on E. Coli βG (eβG) (8 μM) is reported as ~80%. In addition, the eβG activity entry at E. Coli βG (eβG) (40 μM) is listed as “negligible level”.
